In ChEMBL document CHEMBL3774347, “Docking and Linking of Fragments To Discover Jumonji Histone Demethylase Inhibitors” (J Med Chem, 2016):
Active and inactive are the calls of the source. No cut-off for these calls is given here.

Biological target: T1, Lysine-specific demethylase 4C (Homo sapiens) (UniProt Q9H3R0)
T1 sequence (whole entry): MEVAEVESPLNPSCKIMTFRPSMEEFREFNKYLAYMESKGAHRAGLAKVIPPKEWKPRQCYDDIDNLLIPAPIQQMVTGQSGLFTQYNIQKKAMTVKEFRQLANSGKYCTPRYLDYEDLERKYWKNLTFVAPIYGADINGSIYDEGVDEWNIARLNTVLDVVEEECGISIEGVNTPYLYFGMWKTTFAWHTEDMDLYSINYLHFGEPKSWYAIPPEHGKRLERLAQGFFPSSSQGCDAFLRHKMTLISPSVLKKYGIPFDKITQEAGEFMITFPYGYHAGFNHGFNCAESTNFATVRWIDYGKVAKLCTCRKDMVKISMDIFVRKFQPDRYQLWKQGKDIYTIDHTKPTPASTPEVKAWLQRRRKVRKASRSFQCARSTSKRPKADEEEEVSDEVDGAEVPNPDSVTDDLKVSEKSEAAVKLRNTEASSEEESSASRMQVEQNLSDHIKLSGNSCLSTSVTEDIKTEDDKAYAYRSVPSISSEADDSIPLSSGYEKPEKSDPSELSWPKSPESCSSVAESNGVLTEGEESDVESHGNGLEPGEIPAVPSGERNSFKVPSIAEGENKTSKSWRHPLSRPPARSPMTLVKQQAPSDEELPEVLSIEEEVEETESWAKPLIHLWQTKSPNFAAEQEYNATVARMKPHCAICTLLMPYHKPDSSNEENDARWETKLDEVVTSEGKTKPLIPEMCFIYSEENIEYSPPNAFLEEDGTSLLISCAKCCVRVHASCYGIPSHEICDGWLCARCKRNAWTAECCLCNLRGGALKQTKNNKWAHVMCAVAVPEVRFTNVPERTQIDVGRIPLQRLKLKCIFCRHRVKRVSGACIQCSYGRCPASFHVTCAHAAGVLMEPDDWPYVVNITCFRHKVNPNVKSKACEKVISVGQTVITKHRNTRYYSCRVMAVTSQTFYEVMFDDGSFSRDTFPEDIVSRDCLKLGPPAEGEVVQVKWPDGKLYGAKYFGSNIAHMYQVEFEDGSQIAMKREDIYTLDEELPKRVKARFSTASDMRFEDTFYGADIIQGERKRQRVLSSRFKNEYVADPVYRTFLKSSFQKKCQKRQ
Experiment: (§1) Inhibition of N-terminal His6-tagged KDM4C (1 to 352 residues) (unknown origin) expressed in Escherichia coli Rosetta 2(DE3)pLysS using biotinylated histone H3 (1 to 21 residues) lysine 9 trimethylated peptide/2 uM alpha-ketoglutarate as substrate/cofactor measured after 45 mins by TR-FRET assay
Conditions: not given

inhibition | Compound
inactive | CC(=O)Nc1ccc(O)c(C(=O)O)c1

Biological target: T2, Lysine-specific demethylase 4C (Homo sapiens, UniProt Q9H3R0)
T2 sequence (Q9H3R0 whole entry): T1 sequence (whole entry)
Experiment: as §1
Conditions: not given

IC50 | Compound
Not Active | CC(=O)Nc1ccc(O)c(-c2ccccn2)c1

Same assay, conditions: read-out: IC50

Compound | IC50 [µM]
Cn1nccc1CNc1ccc(O)c(-c2cc(C(=O)O)ccn2)c1 | 0.77
O=C(O)c1ccnc(-c2cc(NCc3cccc4c3OCO4)ccc2O)c1 | 0.56
NC(=O)N[C@@H](Cc1c[nH]c2ccccc12)C(=O)O | 18.6
CC(=O)N[C@@H](CCC(=O)O)C(=O)O | 2070
O=C(O)CNC(=O)c1ccc2ccccc2n1 | 2810
O=C(O)c1ccnc(-c2cc(NCc3ccc(Br)cc3)ccc2O)c1 | 2.5
Cn1nccc1CNc1ccc(O)c(C(=O)O)c1 | 58
Nc1ccc(O)c(-c2cc(C(=O)O)ccn2)c1 | 8.3
C[C@@H](NC(=O)c1cc(Cl)ccn1)C(=O)O | 1210
N#Cc1ccc(O)c(-c2cc(C(=O)O)ccn2)c1 | 6
O=C(O)c1ccnc(-c2cc(NC(=O)c3ccccc3O)ccc2O)c1 | 4.6
CC(=O)c1ccccc1-c1cc(C(=O)O)ccn1 | 507
O=C(O)c1cc(NCc2cccc3c2OCO3)ccc1O | 15
Cc1cc(O)c2c(CC(=O)O)cc(=O)oc2c1 | 176
O=C(Cc1ccccc1)Nc1ccc(O)c(-c2cc(C(=O)O)ccn2)c1 | 0.43
NC(=O)N[C@H](Cc1c[nH]c2ccccc12)C(=O)O | 54.7
O=C(O)Cn1nnnc1COc1ccccc1 | 2320
CCCNC(=O)NC(C)(C)C(=O)O | 126
COCC(=O)Nc1ccc(O)c(C(=O)O)c1 | 98
O=C(O)c1ccnc(-c2cc(NC(=O)c3ccno3)ccc2O)c1 | 1.02
CN1CCN(C(=O)c2ccn(CC(=O)O)n2)CC1 | 387
O=C(O)c1ccnc(-c2cc(NC(=O)c3cccc(O)c3)ccc2O)c1 | 0.46
O=C(O)[C@@H]1CC(=O)N(c2nccs2)C1 | 676
COc1ccc(CC(=O)Nc2ccc(O)c(-c3cc(C(=O)O)ccn3)c2)cc1 | 0.069
COc1ccc(N)cc1-c1cc(C(=O)O)ccn1 | 310
O=C(Cc1cccc(Br)c1)Nc1ccc(O)c(-c2cc(C(=O)O)ccn2)c1 | 0.17
CCNC(=S)Nc1ccc(O)c(C(=O)O)c1 | 165

Biological target: T2, Lysine-specific demethylase 4C
Experiment: Inhibition of N-terminal His6-tagged KDM4C (1 to 352 residues) (unknown origin) expressed in Escherichia coli Rosetta 2(DE3)pLysS using biotinylated histone H3 (1 to 21 residues) lysine 9 trimethylated peptide/50 uM alpha-ketoglutarate as substrate/cofactor measured after 45 mins by TR-FRET assay
Conditions: not given

IC50 | Compound
Not Active | CC(=O)Nc1ccc(O)c(-c2ccccn2)c1

Same assay, conditions: read-out: IC50

Compound | IC50 [µM]
O=C(Cc1ccccc1)Nc1ccc(O)c(-c2cc(C(=O)O)ccn2)c1 | 17
COc1ccc(CC(=O)Nc2ccc(O)c(-c3cc(C(=O)O)ccn3)c2)cc1 | 3.7
O=C(Cc1cccc(Br)c1)Nc1ccc(O)c(-c2cc(C(=O)O)ccn2)c1 | 3.4

Biological target: T1, Lysine-specific demethylase 4C (Homo sapiens)
Experiment: Binding affinity to N-terminal His6-tagged KDM4C (1 to 352 residues) (unknown origin) expressed in Escherichia coli Rosetta 2(DE3)pLysS at 1.7 mM by SYPRO Orange dye based thermal shift assay
Conditions: not given

Activity | Compound
Active | Cc1ccccc1CNc1ccc(O)c(C(=O)O)c1

Test system: not listed separately
Experiment: Induction of aggregates formation assessed as particle formation up to 10 uM by dynamic light scattering method
Conditions: not given

Compound | Activity
Cn1nccc1CNc1ccc(O)c(C(=O)O)c1 | inactive
COCC(=O)Nc1ccc(O)c(C(=O)O)c1 | inactive

Test system: not listed separately
Experiment: Inhibition of AmpC beta-lactamase (unknown origin)
Conditions: not given

inhibition | Compound
inactive | Cc1ccccc1CNc1ccc(O)c(C(=O)O)c1
